Read-outs that look alike come from different tables or passages of the source. Each block holds one compound with its values, some of them ahead of it.
How the values were obtained:
HeLa cells [1] = experiment: Apoptosis analysis (Annexin V/PI flow cytometry) in HeLa cells; type: cell-based, human; conditions: 6 h-treatment
Experimental: Apoptosis analysis was performed by using a Vybrant Apoptosis Assay Kit #2 (Molecular Probes, Invitrogen Corporation, Carlsbad, CA, U.S.A.) according to the manufacturer’s instructions. Briefly, cells were seeded at 1.2 × 10^6 cells/4 ml in a 4.5-cm dish, incubated for 24 hours, and treated with different concentrations of the extracts or sinapinic acid for 6 hours. Cells were harvested by trypsinization, washed with cold PBS, and resuspended in the Annexin-binding buffer. Cell density was determined and diluted in the annexin-binding buffer to 10^5 cells per assay. Cells were incubated with Alexa Fluor 488 Annexin V and Propidium iodide (PI) at room temperature for 15 minutes. Following the incubation, cells were analyzed by flow cytometry using a Beckman Coulter Cytomics FC500 MPL flow cytometry (Beckman Coulter, Miami, FL, U.S.A.). The flow cytometry results were confirmed by viewing the cells under a fluorescence microscope.

[2] = target: HDAC enzymes (HeLa nuclear extract); experiment: In vitro HDAC inhibition activity assay (Fluor-de-Lys kit); type: biochemical, human
Experimental: HDAC inhibitory activity of the H. formicarum Jack. rhizome extracts, sinapinic acid (Sigma) and sodium butyrate (Sigma) was determined by using the Fluor-de-Lys HDAC activity assay kit (Biomol, Enzo Life Sciences International, Inc., Plymount Meeting, PA, U.S.A.). The assay was performed according to the manufacturer’s instructions. Fluorescence was measured using a spectra Max Gemini XPS microplate spectrofluorometer (Molecular Devices, Sunnyvale, CA, U.S.A.) with excitation at 360 nm and emission at 460 nm. Inhibition of HDAC activity was monitored by a decrease in fluorescence signal.
The effect of various polarity extracts including fractionated solvent extracts from hexane soluble fraction, ethyl acetate soluble fraction, methanol soluble fraction and also ethanolic crude extract on in vitro HDAC activity was examined by using HeLa nuclear extract as a source of the HDAC enzymes.

[3] = tested on: histone H4 acetylation in HeLa cells; experiment: HDAC inhibition in HeLa cells: histone acetylation by AUT gel electrophoresis; type: cell-based, human; conditions: 6 h-treatment
Experimental: Cells grown in a 4.5-cm dish were treated with either solvent control or the sample for 6 hours, and the histone proteins were then isolated according to the Abcam’s protocol (Abcam Inc., Cambridge, MA, U.S.A.) with some modifications. In brief, cells were harvested by trypsinization, washed with PBS, and then resuspended in Triton Extraction Buffer (TEB; PBS containing 0.5% (v/v) Triton X-100, 2 mM phenylmethylsulfonyl fluoride, 0.02% (w/v) NaN3) at a cell density of 10^5 cells/ml. The cells were incubated on ice and agitated periodically for 10 minutes. The suspension was centrifuged at 7,500 rpm for 10 minutes at 4°C to spin down the nuclei and the supernatant was discarded. The nuclei pellet was resuspended in 0.2 M HCl at a density of 10^6 nuclei/ml and incubated overnight at 4°C. […] Protein concentration was measured by using a Bio-Rad protein assay kit (Bio-Rad Laboratories, Hercules, CA, U.S.A.) based on the Bradford method.
Inhibition on acetylation of cellular histones was analyzed by gel electrophoresis using acid urea/Triton-X-100 (AUT) gels. […]
HDAC inhibition by ethanolic crude extract, phenolic-rich extract and sinapinic acid in HeLa cells was analyzed by AUT gel electrophoresis, whereby each cellular core histone (H2A, H2B, H3, and H4) with different extent of acetylation can be separated. […]

Vero cells = experiment: Antiproliferative activity assay (WST-8), Vero cells; type: cell-based; conditions: compounds
Experimental: (§1) Cells were seeded in a 96-well plate at cell density of 10^4 cells/well and incubated for 24 hours. Sample groups were treated with different concentrations of H. formicarum Jack. rhizome extracts (0.5-3.0 mg/mL), sinapinic acid (0.5-3.0 mM), or sodium butyrate (0.5-3.0 mM) for 24, 48 and 72 hours. Vehicle control groups were added with DMSO (final concentration of 0.05%) or double distilled water. Cell proliferation assays were performed using a WST-8 Cell Proliferation Assay Kit (BioVision, Mountain View, CA, U.S.A.) according to the manufacturer’s instructions. Absorbance (A) was measured at 415 nm using a microtiter plate reader (Bio-Rad Laboratories, Hercules, CA, U.S.A.). The absorbance at 655 nm was used as a reference wavelength. Cell proliferation or cell growth was determined as a percentage of the vehicle control by an equation of;
(§2) %CellProliferation=controlA‒sampleA/controlA×100.

HeLa cells [4] = experiment: Antiproliferative activity assay (WST-8), HeLa cells; type: cell-based, human; conditions: compounds
Experimental: as §1, §2

HT29 cells = experiment: Antiproliferative activity assay (WST-8), HT29 cells; type: cell-based, human; conditions: compounds
Experimental: as §1, §2

HCT116 cells = experiment: Antiproliferative activity assay (WST-8), HCT116 cells; type: cell-based, human; conditions: compounds
Experimental: as §1, §2

MCF-7 cells = experiment: Antiproliferative activity assay (WST-8), MCF-7 cells; type: cell-based, human; conditions: compounds
Experimental: as §1, §2

Jurkat cells = experiment: Antiproliferative activity assay (WST-8), Jurkat cells; type: cell-based, human; conditions: compounds
Experimental: as §1, §2

[5] = 72 h, read-out: IC50 values, HeLa cells 72 h

SMILES: CC[C@@]1(O)C(=O)OCc2c1cc1n(c2=O)Cc2cc3ccccc3nc2-1 [Camptothecin]
- Number of Late Apoptotic cells (%) (HeLa cells [1]; 0.1 mg/mL): 3.55 ± 1.06%

- IC50 [2]: 2270 ± 130 µM
- IC50 (HeLa cells [4]; Homo sapiens, HeLa, 24 h, 24 h, read-out: IC50 values, HeLa cells 24 h): 2350 ± 30 µM
- IC50 (HeLa cells [4]; Homo sapiens, HeLa, 48 h, 48 h, read-out: IC50 values, HeLa cells 48 h): 2040 ± 60 µM
- IC50 (HeLa cells [4]; Homo sapiens, HeLa, 72 h, 72 h, read-out: IC50 values, HeLa cells 72 h): 910 ± 20 µM
- IC50 (HeLa cells [4]; [5]): 900 ± 20 µM
- IC50 (HT29 cells; Homo sapiens, HT-29, 24 h, read-out: IC50 values, HT29 cells 24 h): 2970 ± 50 µM
- IC50 (HT29 cells; Homo sapiens, HT-29, 48 h, read-out: IC50 values, HT29 cells 48 h): 2200 ± 30 µM
- IC50 (HT29 cells; Homo sapiens, HT-29, 72 h, read-out: IC50 values, HT29 cells 72 h): 1600 ± 20 µM
- IC50 (HCT116 cells; Homo sapiens, HCT-116, 24 h, read-out: IC50 values, HCT116 cells 24 h): > 3000 µM
- IC50 (HCT116 cells; Homo sapiens, HCT-116, 48 h, read-out: IC50 values, HCT116 cells 48 h): 2200 ± 150 µM
- IC50 (HCT116 cells; Homo sapiens, HCT-116, 72 h, read-out: IC50 values, HCT116 cells 72 h): 2100 ± 60 µM
- IC50 (MCF-7 cells; Homo sapiens, MCF7, 24 h, read-out: IC50 values, MCF-7 cells 24 h): > 3000 µM
- IC50 (MCF-7 cells; Homo sapiens, MCF7, 48 h, read-out: IC50 values, MCF-7 cells 48 h): > 3000 µM
- IC50 (MCF-7 cells; Homo sapiens, MCF7, 72 h, read-out: IC50 values, MCF-7 cells 72 h): > 3000 µM
- IC50 (Jurkat cells; Homo sapiens, Jurkat, 24 h, read-out: IC50 values, Jurkat cells 24 h): > 3000 µM
- IC50 (Jurkat cells; Homo sapiens, Jurkat, 48 h, read-out: IC50 values, Jurkat cells 48 h): > 3000 µM
- IC50 (Jurkat cells; Homo sapiens, Jurkat, 72 h, read-out: IC50 values, Jurkat cells 72 h): 2800 ± 120 µM
SMILES: COc1cc(/C=C/C(=O)O)cc(OC)c1O [Sinapinic acid, sinapinic acid]
- Histone H4 acetylation in HeLa cells (in words) [3]: clearly increased di- and tri-acetylated H4 molecules
- IC50 (Vero cells; Chlorocebus sabaeus, Vero, 24 h, read-out: IC50 values, Vero cells 24 h): > 3000 µM
- IC50 (Vero cells; Chlorocebus sabaeus, Vero, 48 h, read-out: IC50 values, Vero cells 48 h): > 3000 µM
- IC50 (Vero cells; Chlorocebus sabaeus, Vero, 72 h, read-out: IC50 values, Vero cells 72 h): > 3000 µM
- Number of Early Apoptotic cells (%) (HeLa cells [1]; 4.5 mM): 4.40 ± 1.27%
- Number of Late Apoptotic cells (%) (HeLa cells [1]; 4.5 mM): 1.75 ± 0.78%
- Number of Early Apoptotic cells (%) (HeLa cells [1]; 9.0 mM): 8.40 ± 1.55%
- Number of Late Apoptotic cells (%) (HeLa cells [1]; 9.0 mM): 3.25 ± 1.06%
- Number of Early Apoptotic cells (%) (HeLa cells [1]; 9.0 mM, listed as sinapinic acid): 8.4%

- IC50 [2]: 970 ± 70 µM
- IC50 (HeLa cells [4]; 24 h, read-out: IC50 values, HeLa cells 24 h): 2630 ± 60 µM
- IC50 (HeLa cells [4]; 48 h, read-out: IC50 values, HeLa cells 48 h): 2220 ± 130 µM
- IC50 (HeLa cells [4]; 72 h, listed as sodium butyrate, read-out: IC50 values, HeLa cells 72 h): 1220 ± 30 µM
- IC50 (HeLa cells [4]; [5]): 1200 ± 30 µM
- IC50 (HT29 cells; 24 h, read-out: IC50 values, HT29 cells 24 h): > 3000 µM
- IC50 (HT29 cells; 48 h, read-out: IC50 values, HT29 cells 48 h): > 3000 µM
- IC50 (HT29 cells; 72 h, read-out: IC50 values, HT29 cells 72 h): 2570 ± 30 µM
- IC50 (HCT116 cells; 24 h, read-out: IC50 values, HCT116 cells 24 h): > 3000 µM
- IC50 (HCT116 cells; 48 h, read-out: IC50 values, HCT116 cells 48 h): 2200 ± 200 µM
- IC50 (HCT116 cells; 72 h, read-out: IC50 values, HCT116 cells 72 h): 2000 ± 50 µM
- IC50 (MCF-7 cells; 24 h, read-out: IC50 values, MCF-7 cells 24 h): > 3000 µM
- IC50 (MCF-7 cells; 48 h, read-out: IC50 values, MCF-7 cells 48 h): > 3000 µM
- IC50 (MCF-7 cells; 72 h, read-out: IC50 values, MCF-7 cells 72 h): > 3000 µM
- IC50 (Jurkat cells; 24 h, read-out: IC50 values, Jurkat cells 24 h): > 3000 µM
- IC50 (Jurkat cells; 48 h, read-out: IC50 values, Jurkat cells 48 h): 2360 ± 190 µM
- IC50 (Jurkat cells; 72 h, read-out: IC50 values, Jurkat cells 72 h): 1500 ± 300 µM
SMILES: CCCC(=O)[O-].[Na+] [Sodium butyrate, sodium butyrate]
- IC50 (Vero cells; 24 h, read-out: IC50 values, Vero cells 24 h): > 3000 µM
- IC50 (Vero cells; 48 h, read-out: IC50 values, Vero cells 48 h): > 3000 µM
- IC50 (Vero cells; 72 h, read-out: IC50 values, Vero cells 72 h): > 3000 µM
- Number of Early Apoptotic cells (%) (HeLa cells [1]; 4.5 mM): 3.75 ± 1.06%
- Number of Late Apoptotic cells (%) (HeLa cells [1]; 4.5 mM): 1.00 ± 0.28%
- Number of Early Apoptotic cells (%) (HeLa cells [1]; 9.0 mM): 7.60 ± 1.27%
- Number of Late Apoptotic cells (%) (HeLa cells [1]; 9.0 mM): 2.05 ± 1.06%
- Number of Early Apoptotic cells (%) (HeLa cells [1]; 9.0 mM, listed as sodium butyrate): 7.6%

From article PMC3848914, “Histone deacetylase (HDAC) inhibitory and antiproliferative activities of phenolic-rich extracts derived from the rhizome of Hydnophytum formicarum Jack.: sinapinic acid acts as HDAC inhibitor” (BMC Complementary and Alternative Medicine, 2013)
